Measurements published in US20160304970A1, “GENE BIOMARKER TO DIAGNOSE METASTIC LIVER CANCER AND METHODS FOR TARGETING THE SAME” (University of Southern California, priority 2015, published 2016).

Legend:
[1] = CD133 cell viability screening (luminescence, CellTiter-Glo); assay type: cell-based; conditions: human, CD133 (−) Huh7 cells (freshly MACS-sorted)
Experimental: CD133(+) and CD133(−) Huh7 cells were freshly sorted using the MACS CD133 micro bead kit (Miltenyi Biotec, 130-050-801) and were seeded in 100 μl medium containing 5000 cells per well in a 96-well plate. Once the cells attached, the FDA approved drug library was added to each well to a final concentration of 20 μg/ml in duplicate. After incubation for 48 hours, the cell viability was determined by a luminescence assay. […] After 16 hours, 1 μl of a […] drug solution was individually added to the 96 wells, resulting in a 20 μg/ml final concentration for most compounds. After 48 hours, CellTiter-Glo® Reagent (G8233, Promega) was added and the luminescence signal was measured with an automated plate reader. The raw data for each well was background-corrected by DMSO control wells on the same plate.

[2] = tested on: CD133 (+) Huh7 cells; assay: Tumor spheroid formation assay; assay type: cell-based, human; conditions: CD133 (+) group; ATRA 5 μg/ml, SAHA 0.5 μg/ml; 2 weeks
Experimental: Freshly sorted CD133(+)/(−) Huh7 cells were plated in a low binding culture plate (NUNC 145397) containing 100 cells per well in 100 μl of culture medium with ATRA (5 μg/ml), SAHA (0.5 μg/ml), or a combination of both. After 2 weeks, colony numbers were counted.

[3] = tested on: TICs; assay: RNA sequencing of drug treated TICs; assay type: cell-based, mouse; conditions: ATRA 5 μg/ml, 16 hours
Experimental: RNA sequencing samples were collected at 16 hours of treatment with ATRA (5 μg/ml), SAHA (0.5 μg/ml) or combination treatment. Total RNA for RNA sequencing was extracted using RNeasy Plus Mini Kit (Qiagen), which includes a DNA depletion column. DNase I treatment and rRNA depletion with Tibozero technology were performed before RNA sequencing. Sample quantity and quality was verified by spectrophotometry (NanoDrop 1000), fluorimetry (Qubit), and the Aglient Bioanalyzer 2100 profiler. RNA Integrity Number (RIN) values of >7.0 and OD260/280=2.0-2.2 were used for RNA-seq library preparation. Extracted RNA (1 μg) was used for RNA sequencing (Illumina HiSeq2500 system). Sequenced reads were cleaned according to a rigorous pre-processing workflow (Trimmomatic-0.32) before mapping them to the mouse genome (mm10) using SHRiMP2.2.3 (http://compbio.cs.toronto.edu/shrimp/). Cufflinks2.0.2 (cuffdiff2-Running Cuffdiff) was then used to perform differential expression analysis with a FDR cutoff of 0.05 (95% confidence interval). A Perl script was used after differential expression analysis to improve the readability of the results files. Quality control information was generated via Fastqc: www.bioinformatics.babraham.ac.uk/projects/fastqc/. […] All gene expression profiles were analyzed by Partek Flow, Ingenuity Pathway Analysis and Gene Set Enrichment Analysis.

[4] = tested on: patient-derived TICs; assay: Subcutaneous xenograft of patient-derived TICs in NSG mice; assay type: in vivo, mouse; conditions: no SAHA, i.p.
Experimental: To establish prognostic biomarkers for the best combination chemotherapy, five different patient-derived TICs were tested for responses as xenografts in NSG mice for the best combination chemotherapy based on mutation/transcriptome subtypes. Anti-tumorigenic ability by ATRA+SAHA targeting TICs encapsulated with SAHA was validated (Table 3). […] As placebo treatment, solvent (DMSO) in an equal total volume (0.2 ml/mouse) was injected. Tumor growth kinetics was studied. Combination of ATRA with SAHA further inhibited the self-renewal abilities of TICs in vivo (FIG. 17E).

For `CC1=C(/C=C/C(C)=C/C=C/C(C)=C/C(=O)O)C(C)(C)CCC1` [ATRA, all-trans retinoic acid], the viability at 48 h, 20 μg/ml [1] was 72%, the “reduction of colony numbers, tumor spheroid formation” value [2] was 83% and the “genes differentially expressed from the controls” value [3] was 189 genes. For the same molecule, the “anti-tumorigenic ability, % (animals/total)” value ([4]; ATRA 100 mg/m^2/day) was 22% (7/32) and the “anti-tumorigenic ability, % (animals/total)” value ([4]; ATRA 150 mg/m^2/day) was 19% (6/32).
